Data from patent US20220144812A1, “QUINOLINE DERIVATIVES AND THEIR USE FOR THE TREATMENT OF CANCER” (Epizyme, Inc., priority 2019, published 2022).
pIC50: −log10 of the molar value.

Columns and labels:
[1] = tested on: H3K18Ac in HB-CLS-2 cells; experiment: H3K18AC in-cell western (ICW) assay; format: cell-based; settings: H3K18Ac in-cell western; read-out: CREBBP ICW IC50
Method in brief: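 HB-CLS-2 cells seeded 16–24 hours before 2 hr compound treatment at 37° C, 5% CO2, then methanol-fixed. H3K18Ac detected with rabbit monoclonal primary (overnight, 4° C) and 800CW anti-rabbit secondary; DRAQ5 stained DNA. Plates imaged at 700 and 800 nm for integrated intensity; IC50 in μM.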

647V cells = experiment: High throughput proliferation (HTP) assay; format: cell-based; settings: Homo sapiens, 647-V, high throughput proliferation; read-out: CREBBP HTP IC50
Method in brief: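 Exponentially growing 647V cells in DMEM with 15% FBS were treated in triplicate with increasing compound concentrations at 37° C, 5% CO2. Viable cell number was read by CellTiter-Glo luminescence on day 7; IC50 in micromolar.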

EP300 (P300(1048-1664)) = target: T1, EP300 (P300(1048-1664)) (Homo sapiens, UniProt Q09472); experiment: Biochemical assay for EP300, SAMDI; settings: EP300, SAMDI; read-out: EP300 Biochemistry IC50
T1 construct: P300(1048-1664)
T1 sequence (Q09472 1048-1664): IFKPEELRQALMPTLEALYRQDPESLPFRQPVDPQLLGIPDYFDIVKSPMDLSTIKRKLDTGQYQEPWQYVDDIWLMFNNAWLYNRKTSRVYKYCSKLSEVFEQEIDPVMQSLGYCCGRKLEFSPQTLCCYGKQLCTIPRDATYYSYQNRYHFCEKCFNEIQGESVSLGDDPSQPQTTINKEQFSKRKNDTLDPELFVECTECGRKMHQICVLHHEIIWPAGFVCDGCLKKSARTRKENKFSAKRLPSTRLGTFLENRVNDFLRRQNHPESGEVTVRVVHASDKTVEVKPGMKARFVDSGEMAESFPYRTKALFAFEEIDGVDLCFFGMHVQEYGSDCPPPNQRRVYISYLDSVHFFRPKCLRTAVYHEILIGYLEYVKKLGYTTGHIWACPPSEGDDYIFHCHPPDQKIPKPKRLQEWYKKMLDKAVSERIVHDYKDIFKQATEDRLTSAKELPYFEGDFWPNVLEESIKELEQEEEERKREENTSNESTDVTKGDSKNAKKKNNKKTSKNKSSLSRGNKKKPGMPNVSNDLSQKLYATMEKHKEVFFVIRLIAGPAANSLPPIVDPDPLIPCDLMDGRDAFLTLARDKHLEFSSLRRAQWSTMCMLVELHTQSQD
Source text: The following example describes materials and methods relating to a biochemical assay for EP300. IC50 values (micromolar (μM)) are summarized in Table 1, Table 2, and Table 3 under the column labeled: “EP300 Biochemistry IC50 (micromolar).”

CREBBP (1084-1701) = target: T2, CREBBP (1084-1701) (Homo sapiens, UniProt Q92793); experiment: Biochemical assay for CREBBP (1084-1701), SAMDI; settings: SAMDI, read-out: CREBBP Biochemistry IC50
T2 construct: measured in the following biochemical assay using CREBBP (1084-1701); purchased
Method in brief: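 CREBBP (1084-1701) preincubated with compound 30 min at RT, then substrate mix (biotin-H3 11-25 K14R/K23R peptide, acetyl-CoA) added for 30 min at RT. Reaction stopped with formic acid, neutralised with sodium bicarbonate. Peptide acetylation read by SAMDI mass spectrometry to derive IC50.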

T2 sequence (Q92793 1084-1701): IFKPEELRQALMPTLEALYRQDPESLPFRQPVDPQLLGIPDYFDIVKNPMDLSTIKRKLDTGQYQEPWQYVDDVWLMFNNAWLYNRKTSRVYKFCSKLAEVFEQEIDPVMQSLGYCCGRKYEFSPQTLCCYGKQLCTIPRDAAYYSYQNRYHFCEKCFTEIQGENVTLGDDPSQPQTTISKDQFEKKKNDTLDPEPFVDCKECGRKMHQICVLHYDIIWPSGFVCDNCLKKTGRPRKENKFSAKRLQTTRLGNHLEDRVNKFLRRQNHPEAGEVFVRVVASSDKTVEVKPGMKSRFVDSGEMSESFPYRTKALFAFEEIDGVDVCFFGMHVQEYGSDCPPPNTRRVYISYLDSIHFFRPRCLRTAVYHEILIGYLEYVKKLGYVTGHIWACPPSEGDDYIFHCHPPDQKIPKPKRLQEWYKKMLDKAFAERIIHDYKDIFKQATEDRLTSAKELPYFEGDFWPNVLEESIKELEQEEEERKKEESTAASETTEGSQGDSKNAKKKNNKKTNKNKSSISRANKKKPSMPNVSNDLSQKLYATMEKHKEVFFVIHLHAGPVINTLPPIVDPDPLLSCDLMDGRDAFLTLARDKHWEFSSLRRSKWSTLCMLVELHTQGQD

## CCn1ncc(CN(C)C(=O)c2nc(-c3cc(C)cc(NCCN(C)C(=O)OC(C)(C)C)c3)nc3ccc(Cl)cc23)c1C [Compound 99]
[1]
  pIC50: 5.70
647V cells
  pIC50: 5.68
EP300 (P300(1048-1664))
  pIC50: 5.59
CREBBP (1084-1701)
  pIC50: 5.66

## CCn1ncc(CN(C)C(=O)c2nc(-c3cn[nH]c3C)nc3ccc(Cl)cc23)c1C [Compound 100]
[1]
  pIC50: 5.68
647V cells
  pIC50: 5.80
EP300 (P300(1048-1664))
  pIC50: 5.20
CREBBP (1084-1701)
  pIC50: 4.96

## CCn1ncc(CN(C)C(=O)c2nc(-c3ccc(OCCO)c(OC)c3)nc3ccc(Cl)cc23)c1C [Compound 102]
[1]
  pIC50: 5.68
647V cells
  pIC50: 5.64
EP300 (P300(1048-1664))
  pIC50: 5.37
CREBBP (1084-1701)
  pIC50: 5.40

## CCn1ncc(CN(C)C(=O)c2nc(-c3ccc4nc(C)n(C(=O)OC(C)(C)C)c4c3)nc3ccc(Cl)cc23)c1C [Compound 104]
[1]
  pIC50: 5.66
647V cells
  pIC50: 6.64
EP300 (P300(1048-1664))
  pIC50: 4.89
CREBBP (1084-1701)
  pIC50: 5.04

## CCn1ncc(CN(C)C(=O)c2nc(-c3cc(C#N)cc(NCCN(C)C(=O)OC(C)(C)C)c3)nc3ccc(Cl)cc23)c1C [Compound 105]
[1]
  pIC50: 5.62
647V cells
  pIC50: 5.74
EP300 (P300(1048-1664))
  pIC50: 5.64
CREBBP (1084-1701)
  pIC50: 5.48

## CC1CCCc2c(CN(C)C(=O)c3cc(-c4cccc(Cl)c4)nc4ccc(Cl)cc34)cnn21 (stereo not shown) [Compound 107]
[1]
  pIC50: 5.60
647V cells
  pIC50: 5.21
EP300 (P300(1048-1664))
  pIC50: 6.23
CREBBP (1084-1701)
  pIC50: 5.96

## CCn1ncc(CN(C)C(=O)c2nc(-c3ccc(OCCOC)c(Cl)c3)nc3ccc(Cl)cc23)c1C [Compound 108]
[1]
  pIC50: 5.60
647V cells
  pIC50: 5.66
EP300 (P300(1048-1664))
  pIC50: 6.03
CREBBP (1084-1701)
  pIC50: 6.01

## CCn1ncc(CN(C)C(=O)c2nc(-c3cnc[nH]3)nc3ccc(Cl)cc23)c1C [Compound 109]
[1]
  pIC50: 5.60
647V cells
  pIC50: 5.46
EP300 (P300(1048-1664))
  pIC50: 5.85
CREBBP (1084-1701)
  pIC50: 5.41

## CCn1ncc(CN(C)C(=O)c2nc(-c3ccc(OCCCNC)cc3)nc3ccc(Cl)cc23)c1C [Compound 110]
[1]
  pIC50: 5.59
647V cells
  pIC50: 5.85
EP300 (P300(1048-1664))
  pIC50: 5.36
CREBBP (1084-1701)
  pIC50: 5.49

## CCn1ncc(CN(C)C(=O)c2nc(-c3ccc(OCCO)c(F)c3)nc3ccc(Cl)cc23)c1C [Compound 111]
[1]
  pIC50: 5.59
647V cells
  pIC50: 5.62
EP300 (P300(1048-1664))
  pIC50: 5.33
CREBBP (1084-1701)
  pIC50: 5.19

## CCn1ncc(CN(C)C(=O)c2nc(-c3ccc(NCCNC)cn3)nc3ccc(Cl)cc23)c1C [Compound 112]
[1]
  pIC50: 5.57
647V cells
  pIC50: 5.68
EP300 (P300(1048-1664))
  pIC50: 6.14
CREBBP (1084-1701)
  pIC50: 5.89

## CCn1ncc(CN(C)C(=O)c2cc(-c3ccc(NCCN(C)C(=O)OC(C)(C)C)cn3)nc3ccc(Cl)cc23)c1C [Compound 113]
[1]
  pIC50: 5.55
647V cells
  pIC50: 5.17
EP300 (P300(1048-1664))
  pIC50: 5.82
CREBBP (1084-1701)
  pIC50: 5.32

## CCn1ncc(CN(C)C(=O)c2nc(-c3ccc(OCCN(C)S(C)(=O)=O)c(OC)c3)nc3ccc(Cl)cc23)c1C [Compound 114]
[1]
  pIC50: 5.55
647V cells
  pIC50: 5.55
EP300 (P300(1048-1664))
  pIC50: 5.37
CREBBP (1084-1701)
  pIC50: 5.28

## CCn1ncc(CN(C)C(=O)c2nc(-c3cc(Cl)cc(NCCCN(C)C(=O)OC(C)(C)C)c3)nc3ccc(Cl)cc23)c1C [Compound 115]
[1]
  pIC50: 5.55
647V cells
  pIC50: 5.36
EP300 (P300(1048-1664))
  pIC50: 6.96
CREBBP (1084-1701)
  pIC50: 6.80

## CCn1ncc(CN(C)C(=O)c2nc(-c3cc(CNC)ccc3C)nc3ccc(Cl)cc23)c1C [Compound 116]
[1]
  pIC50: 5.54
647V cells
  pIC50: 5.72
EP300 (P300(1048-1664))
  pIC50: 5.16
CREBBP (1084-1701)
  pIC50: 5.47

## CCn1ncc(CN(C)C(=O)c2nc(-c3ccc(OCCNC(=O)OC(C)(C)C)c(Cl)c3)nc3ccc(Cl)cc23)c1C [Compound 117]
[1]
  pIC50: 5.52
647V cells
  pIC50: 5.62
EP300 (P300(1048-1664))
  pIC50: 5.37
CREBBP (1084-1701)
  pIC50: 6.57

## CCn1ncc(CN(C)C(=O)c2cc(-c3cn(C)cn3)nc3ccc(Cl)cc23)c1C [Compound 119]
[1]
  pIC50: 5.48
647V cells
  pIC50: 6.16
EP300 (P300(1048-1664))
  pIC50: 5.89
CREBBP (1084-1701)
  pIC50: 5.35

## CCn1ncc(CN(C)C(=O)c2nc(-c3cc(Cl)cc(NCCN(C)C(=O)OC(C)(C)C)c3)nc3ccc(Cl)cc23)c1C [Compound 121]
[1]
  pIC50: 5.46
647V cells
  pIC50: 5.42
EP300 (P300(1048-1664))
  pIC50: 6.07
CREBBP (1084-1701)
  pIC50: 6.39

## CCn1ncc(CN(C)C(=O)c2cc(-c3ccc(OCC(=O)NC)c(OC)c3)nc3ccc(Cl)cc23)c1C [Compound 122]
[1]
  pIC50: 5.44
647V cells
  pIC50: 5.68
EP300 (P300(1048-1664))
  pIC50: 5.37
CREBBP (1084-1701)
  pIC50: 5.35
